In patent US8211894B2, “Heteroarylalkyl-8-azabicyclo[3.2.1]octane compounds as mu opioid receptor antagonists” (Theravance, Inc., priority 2007, dated 2012):
Where two headings read alike, the source gives them in different places.

Assays:
[1] = system: loperamide-induced delayed gastric emptying; assay: Rat gastric emptying assay (reversal of loperamide-induced delayed gastric emptying); type: in vivo; settings: administered orally, loperamide 1 mg/kg s.c., gastric emptying model
Procedure: Assay 3: Rat Model of In Vivo Efficacy In this assay the efficacy of test compounds was evaluated in a model of gastrointestinal transit, which evaluates peripheral activity. This study was approved by the Institutional Animal Care and Use Committee at […]. and conformed to the Guide for the Care and Use of Laboratory Animals published by the National Academy of Sciences (©1996). a. Rat Gastric Emptying Assay Test compounds were evaluated in the rat gastric emptying assay to determine their ability to reverse loperamide-induced delayed gastric emptying. […] The administration of test compound was followed by subcutaneous administration of loperamide at a dose of 1 mg/kg or vehicle. Five minutes post loperamide or vehicle administration, a non-nutritive, non-absorbable charcoal meal was administered via oral gavage and animals were allowed free access to water for the sixty minute duration of the experiment. […] Gastric weight was then determined after removal of the ligatures. b. Data Analysis and Results Data was analyzed using the GraphPad Prism Software package (GraphPad Software, Inc., San Diego, Calif.). Percent reversal curves were constructed by non-linear regression analysis using the sigmoidal dose response (variable slope) model and best-fit ID50 values were calculated. […]

human mu opioid receptor [2] = target: T1, human mu opioid receptor (Homo sapiens, UniProt P35372); assay: Radioligand binding assay, human mu opioid receptor ([3H]-Diprenorphine displacement)
T1 construct: host or cells: CHO-K1
T1 sequence (P35372 whole entry): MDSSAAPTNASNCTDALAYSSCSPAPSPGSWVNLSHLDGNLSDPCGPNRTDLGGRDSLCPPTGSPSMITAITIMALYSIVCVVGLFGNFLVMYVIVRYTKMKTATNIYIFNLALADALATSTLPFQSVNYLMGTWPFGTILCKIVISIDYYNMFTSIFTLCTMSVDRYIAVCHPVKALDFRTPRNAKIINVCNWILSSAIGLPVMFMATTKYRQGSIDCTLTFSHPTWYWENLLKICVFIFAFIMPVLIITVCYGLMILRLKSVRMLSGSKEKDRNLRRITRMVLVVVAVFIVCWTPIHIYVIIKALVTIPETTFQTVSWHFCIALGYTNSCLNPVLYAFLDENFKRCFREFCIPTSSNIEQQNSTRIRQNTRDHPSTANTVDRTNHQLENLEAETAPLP

human mu opioid receptor [3] = target: T1, human mu opioid receptor; assay: Human mu GTP-Eu nucleotide exchange assay (agonist mediated activation, CHO-K1 membranes); type: biochemical; settings: bound GTP-Eu relative to DAMGO (IA=100); read-out: intrinsic activity (IA), expressed as a percentage
[4] = [3H]-Diprenorphine 0.5 nM, CHO-K1 membranes, read-out: pKi at the human mu opioid receptor (converted)

SMILES: NC(=O)c1cccc([C@H]2C[C@H]3CC[C@@H](C2)N3Cc2cn(C3CCC(F)(F)CC3)nn2)c1 [Example 4, 3-endo-{8-[1-(4,4-Difluorocyclohexyl)-1H-1,2,3-triazol-4-ylmethyl]-8-azabicyclo[3.2.1]oct-3-yl}benzamide]
- ID50, dose required for 50% reversal of the effects of loperamide [1]: 0.25 mg/kg
- Ki (human mu opioid receptor [2]): 0.1 nM
- Emax (human mu opioid receptor [3]): 0%

SMILES: CC(C)Cc1nc(CCCN2[C@@H]3CC[C@H]2C[C@@H](c2cccc(C(N)=O)c2)C3)no1 [Example 14, 3-endo-{8-[3-(5-Isobutyl-1,2,4-oxadiazol-3-yl)-propyl]-8-aza-bicyclo[3.2.1]oct-3-yl}benzamide]
- Ki (human mu opioid receptor [2]; [4]): 1.58 nM
- Emax (human mu opioid receptor [3]): -11%

SMILES: CCCc1cn(CCN2[C@@H]3CC[C@H]2C[C@@H](c2cccc(C(N)=O)c2)C3)nn1 [Example 8, 3-endo-{8-[2-(4-Propyl-[1,2,3]-triazol-1-yl)-ethyl]-8-aza-bicyclo[3.2.1]oct-3-yl}benzamide]
- Ki (human mu opioid receptor [2]; [4]): 0.0794 nM
- Emax (human mu opioid receptor [3]): -4%

SMILES: NC(=O)c1cccc([C@H]2C[C@H]3CC[C@@H](C2)N3Cc2cncn2Cc2ccccc2)c1 [Example 11, 3-endo-[8-(3-Benzyl-1H-imidazol-4-ylmethyl)-8-aza-bicyclo[3.2.1]oct-3-yl]-benzamide]
- Ki (human mu opioid receptor [2]; [4]): 0.631 nM
- Emax (human mu opioid receptor [3]): 6%

SMILES: NC(=O)c1cccc([C@H]2C[C@H]3CC[C@@H](C2)N3Cc2cn(C3CCCCC3)nn2)c1 [Example 1, 3-endo-[8-(1-Cyclohexyl-1H-[1,2,3]-triazol-4-ylmethyl)-8-azabicyclo[3.2.1]oct-3-yl]benzamide]
- ID50, dose required for 50% reversal of the effects of loperamide [1]: 0.13 mg/kg
- Ki (human mu opioid receptor [2]): 0.0501 nM
- Emax (human mu opioid receptor [3]): -4%

SMILES: NC(=O)c1cccc([C@H]2C[C@H]3CC[C@@H](C2)N3CCCn2cc(-c3ccc(F)cc3F)nn2)c1 [Example 9, 3-endo-(8-{3-[4-(2,4-Difluorophenyl)-[1,2,3]-triazol-1-yl]-propyl}-8-azabicyclo[3.2.1]oct-3-yl)benzamide]
- Ki (human mu opioid receptor [2]; [4]): 0.0501 nM
- Emax (human mu opioid receptor [3]): -1%
